Molecules are shown by their SMILES.

Take `CCCCn1c(=O)c2c(NC)n[nH]c2n(Cc2ccccc2)c1=O`: the melting point (in general, the temperature of the solid-liquid transition) lay within 282 to 284 °C.
As for `Oc1ccc(-c2noc(C3(C(O)(C4CC4)C4CC4)CC3)c2-c2ccccc2)cc1`, the figure is 169 to 170 °C; as for `COc1nnc2n1C=Cc1ccccc1C2C` (configuration not stated), 101 to 102 °C; as for `Cc1cc(=O)n2c3c(cc(C(O)(C(F)(F)F)C(F)(F)Cl)cc13)CC2` (configuration not stated), 160 to 164 °C.
Molecule `CCOc1ccc(C=O)c(F)c1F` returned a melting point of 70 °C.
The figure for `Cc1c(Cl)n(C)n(C)c1=O` is 37 to 38 °C; for `COC(=O)c1ccc(-c2nc3cc(C(=O)O)ccc3o2)cc1` it is 275 to 284 °C.
As for `CCOC(OCC)c1[nH]c(C2CC2)nc(=O)c1Cl`, the figure is 109 to 111 °C.
Molecule `Oc1ccc(-c2cc3ncccc3cn2)cc1` showed a melting point of 219 to 221 °C.
The figure for `CC(COc1ccc(CC2SC(=O)NC2=O)cc1)N1CC(Cc2ccccc2)OC1=O` (configuration not stated) is 60 to 70 °C; for `COc1ccc2[nH]c(C(C)C)c(/C=C/C(=O)c3ccncc3)c2c1` it is 252 to 253 °C.
As to `O=C(Nc1ccccc1)O[C@@H]1CN=C(c2ccc(Cl)c(Cl)c2)O[C@H]1c1ccccc1` (racemic), the melting point stood at 130 °C.
Take `CCOC(=O)c1c(C(C)C)nc2onc(C)c2c1-c1ccc(F)cc1`: the melting point lay within 90 to 110 °C.
In turn, `Cc1nnc(N2N=C(c3ccc([N+](=O)[O-])cc3)c3cc4c(cc3CC2C)OCO4)s1` (configuration not stated) registered a melting point of 101 to 102 °C.
Molecule `CCOC(=O)C1(Sc2ccccc2[N+](=O)[O-])Cc2ccc(N(C)C)cc2NC1=O` (configuration not stated) registered a melting point of 174 to 176 °C.
As for `COc1ccc(OCc2cn(C34CC5CC(CC(C5)C3)C4)nn2)cc1OC`, the figure is 108 to 112 °C; as for `CC1(C)OC(=O)Nc2ccc(-c3cccc(C(=O)c4ccccc4)c3)cc21`, 156 to 157 °C; as for `Cc1cc(O)cc2c1C(C)(C)CC2(C)C`, 120 °C.
In turn, `Nc1cccc2c(=O)[nH]sc12` gave a melting point of 161 to 165 °C.
The figure for `O=C1NCCN1c1ccc(S(=O)(=O)Nc2ccc(F)cc2)cc1` is 249 to 251 °C; for `CCOC(=O)c1cnc2c3ccccc3c(CC)cn2c1=O` it is 161 to 163 °C.
The figure for `OCCOc1cncc(Cl)c1` is 38 to 40 °C; for `CC(C)N(C)C(=O)NS(=O)(=O)c1cc(-n2c(=O)cc(C(F)(F)F)n(C)c2=O)c(F)cc1Cl` it is 145 °C.
Regarding `COC(=O)Cn1oc2cc(OC)ccc2c1=O`, the melting point was 185 to 188 °C.
In the case of `Cc1ccccc1Cc1n[nH]c2c1c(=O)n(-c1cccc(OC(F)(F)F)c1)c1ncccc21`, the melting point fell in the range of 240 to 242 °C.
The figure for `CN1NC(C2CCCC2)=CC1C(=O)O` (configuration not stated) is 123 to 128 °C; for `COc1ccnc(CCc2nc3cc(-c4ccc(S(=O)(=O)N5CCC(C(=O)c6ccccc6)CC5)cc4)cnc3[nH]2)c1` it is 174 to 175 °C; for `Nc1nc(NC2CCc3ccccc32)c2ncn(C3OC(CO)C(O)C3O)c2n1` (configuration not stated) it is 143 to 146 °C.
For the molecule `ON=C(Cn1ccnc1)c1ccc(Cl)cc1`, the melting point was 185 to 186 °C.
`O=C(c1ccc(Oc2ccccc2)c([N+](=O)[O-])c1)c1ccc(Oc2ccccc2)c([N+](=O)[O-])c1` returned a melting point of 111 to 113 °C.
The molecule `COc1ccc(CCCN2CCc3cc(O)ccc3C2)cc1` showed a melting point of 163 to 164 °C.
The figure for `CCOc1ccc(CCC=[N+]([O-])C(C)(C)C)cc1` is 54 to 57 °C; for `CC(C)n1nc(-c2ccccc2)c(-c2ccc(F)cc2)c1CBr` it is 93 to 95 °C.
`COc1ccc2nc(C)cc(NNC(=O)Nc3ccc(N(CCCl)CCCl)cc3)c2c1` came in with a melting point of 184 to 186 °C.
The figure for `CCO[C@@H]1c2ccc3c(nc(C)n3C)c2O[C@H](c2ccccc2)[C@H]1O` is 222 °C; for `CCCCCCN(CCCCCC)CC1CCN(C(=O)Oc2ccc(Oc3ccccc3)cc2)CC1` it is 46 to 47 °C; for `Cc1oc(-c2ccccc2)nc1CCOc1ccc(/C=C/C#N)cn1` it is 116 to 117 °C.
The molecule `Cc1cc(NC(=O)CN2CCN(c3ccccc3C#N)CC2)ccc1Br` displayed a melting point of 143 to 145 °C.
Molecule `CC(C)c1ccc(S(=O)(=O)n2c(Cc3ccc(C(=O)O)cc3)cc3cc(Cl)ccc32)cc1` registered a melting point of 192 °C.
In turn, `CCc1cccc(C)c1S(=O)(=O)c1nn(C(=O)N(CC)CC)cc1OC` registered a melting point of 102 to 104 °C.
As to `Nc1cc(C(=O)O)cc(S(N)(=O)=O)c1Sc1ccccc1`, the melting point turned out to be 285 °C.
On to `CC1OC(n2cc(F)c(NC(=O)c3ccc4c(c3)OCO4)nc2=O)C(O)C1O` (configuration not stated), for which the melting point lay in the range of 124 to 125 °C.
In the case of `CNc1ccccc1CS(=O)c1nccn1-c1ccccn1` (configuration not stated), the melting point was 135 to 137 °C.
As for `CCOc1cc2nc(NC)nc(-c3cccc(-c4cncc(SC)c4)c3)c2cc1OCC`, the figure is 105 to 107 °C; as for `CC(C)(C)C(=O)C(=Cn1ccnc1)Oc1ccc(Cl)cc1`, 94 to 95 °C; as for `CSCC[C@H](NC(=O)c1ccc(/C=C(/Cn2ccnc2)c2ccc(F)cc2)cc1)C(=O)O`, 106 °C.
The figure for `CC(C)n1nc(-c2sc(NC(=O)C3CC3)nc2-c2ccc(F)cc2)ccc1=O` is 250 to 252 °C; for `CCOC(=O)C1=C(C)NN=C(C(=O)OC)C1c1ccc([N+](=O)[O-])cc1` (configuration not stated) it is 205 to 206 °C; for `CN1CCN(C2=Nc3ccccc3Nc3ccsc32)CC1` it is 202 to 206 °C.
The molecule `NC(=O)C(O)(C(N)=O)c1ccccc1` showed a melting point of 159 °C.
As for `N#CNC(=NC1CCN(Cc2ccccc2)CC1)N1CCc2ccccc2CC1`, the figure is 192 to 194 °C.
Consider `N#CC1=C(c2ccccc2)Nc2n[nH]cc2C1c1ccccc1C#N` (configuration not stated), for which the melting point worked out at 148 °C.
As for `Cc1c(C(=O)NNC(C)(C)C)ccc2c1CCCO2`, the figure is 146 to 148 °C.
As for `O=C(NCCN1CCN(C(c2ccccc2)c2ccncc2)CC1)C1CSC(c2cccnc2)N1` (configuration not stated), the figure is 160 to 162 °C.
With `Cc1ccc(N=C=C2C=CC=CN2)c(C)c1[N+](=O)[O-]`, the melting point is 114 to 116 °C.
The figure for `COC(=O)c1cc(S(=O)(=O)N(C)C)c(F)c(F)c1Nc1ccc(I)cc1Cl` is 154 to 156 °C.
The figure for `COc1cc2c(cc1OC)CN(c1c(C)c(C)c3c(c1C)C(c1ccc(C(C)C)cc1)C(C)(C)O3)C2` (configuration not stated) is 153 to 155 °C; for `O=C1NC(=NCc2ccccc2)C(c2ccc(Br)cc2)N1c1ccc2[nH]cnc2c1` (configuration not stated) it is 244 °C.
In turn, `O=C(Nc1ccc(C(F)(F)F)nc1C1CCN(CC=Cc2ccc(Cl)cc2)CC1)c1ccnc(Cl)c1` displayed a melting point of 134 to 135 °C.
As for `CC(C)SSCC12CCC(O)CC1=CCC1C3CCC(=O)C3(C)CCC12` (configuration not stated), the figure is 168 to 169 °C; as for `CCOC(=O)Cc1nc(-c2ccc(Cl)cc2)oc1-c1ccco1`, 105 to 106 °C.
Molecule `CC(C)C[C@H](N)C(=O)NCCNC(=O)OCc1ccccc1` yielded a melting point of 148 to 149 °C.
As for `Cc1c(C=O)c2cc(Br)ccc2n1-c1ccc(O)cc1`, the figure is above 250 °C; as for `Cc1nc(-c2ccc(Cl)cc2)c2nc(-c3ccccc3)cc-2[nH]1`, 281 to 283 °C.
`CCN(CCCCCN(CCCCCN(CC)S(=O)(=O)c1c(C)cc(C)cc1C)S(=O)(=O)c1c(C)cc(C)cc1C)S(=O)(=O)c1c(C)cc(C)cc1C` yielded a melting point of 60 to 62 °C.
The figure for `COc1ccc(OCCCc2cn(-c3ccc(C(F)(F)F)cn3)nc2C(C)C)c(CC(=O)O)c1` is 143 to 144 °C; for `CCN1CCC2(CC1)CN=C(c1cc3cccc(N(C)S(=O)(=O)c4cccs4)c3[nH]1)S2` it is 215 °C; for `Cc1nc(C)c(C(C)(O)c2ccsc2)o1` (configuration not stated) it is 132 to 133 °C.
As for `CSc1nc(NCCCn2ccnc2)c(C#N)c(N2CCc3ccccc3CC2)n1`, the figure is 131 to 134 °C.
Take `Nc1cc(Oc2ccc3c(C(=O)Nc4ccc(F)c(C(F)(F)F)c4)nccc3c2)ncn1`: the melting point lay within 219 to 222 °C.
The molecule `Nc1ccc(-c2ccc3nnn(Cc4ccc5ncccc5c4)c3n2)cc1` came in with a melting point of 190 to 193 °C.
The figure for `C#CCN1C(=O)COc2cc(F)c(-n3nc4ccc(Cl)cn4c3=O)cc21` is 196 to 198 °C.
The figure for `CC(=CCP(=O)(O)O)C(N)C(=O)O` (configuration not stated) is 168 °C; for `CC(=O)Nc1nc2c(nc(NC(C)=O)n2Cc2cccs2)c(=O)[nH]1` it is 243 to 244 °C; for `CCN(Cc1cccs1)C(=O)C12CC3CC(CC(C3)C1)C2` it is 103 to 105 °C.
The figure for `COCCC(=O)OC[C@@H]1CC(c2ccc(-c3ccc(N4C[C@H](Cn5ccnn5)OC4=O)cc3F)cn2)=NO1` is 149 °C; for `Cc1nc(-c2ccccc2)nc(OCC(=O)O)c1C` it is 175 to 177 °C.
As to `CCCCc1ccc(OC)c(-c2csc(NC(=O)c3ccc(C(=O)O)cc3)n2)c1`, the melting point is 160 °C.
The figure for `O=C1Nc2cccnc2Nc2ncccc21` is above 340 °C.
The figure for `Cc1ccc(CCCO)c(NCc2ccc3nc(NCCCN4CCOCC4)n(Cc4cccc(Br)n4)c3c2)c1` is 141 °C; for `COc1ccc(Nc2ccccc2CCC(=O)c2ccccc2)cc1` it is 110 to 112 °C.
As for `Cc1ccc(N2CCNCC2)c2c1CC[C@@H](NC(=O)c1ccc(N3CCOCC3)cc1)C2`, the figure is 207 to 210 °C; as for `CCN(CC)C(=O)c1ccc(C(=C2CC3CCC(C2)N3C)c2ccccc2)cc1`, 145 to 147 °C; as for `C[C@@H](Nc1ncnc2[nH]c(-c3ccc(CNC(=O)CCN4CCCCC4)cc3)cc12)c1ccccc1`, 140 °C.
For the molecule `CC(C)(C)c1cc(C=C(C#N)C#N)cc(I)c1O`, the melting point worked out at 188 °C.
On to `Cn1ncc(C(=O)c2ccc(S(C)(=O)=O)cc2Cl)c1O`, for which the melting point fell in the range of 272 to 275 °C.
The figure for `CC(=O)OC1CC2=CC(=O)C3C4CCC(C(C)CCCC(C)C)C4(C)CCC3C2(C)C(OC(C)=O)C1` (configuration not stated) is 121 to 122 °C.

Source of the values: a melting point compilation (Tetko et al.; mined from patent text by program, amines drawn as free bases though some values may be those of a salt).
